Experimental data published in patent US12539324B2, “Antimicrobial peptide stimulating sanitizing composition” (GOJO Industries, Inc., priority 2016, dated 2026).

Experiments:
Format in all cases: cell-based, human
HBD-1 = HBD-1 ELISA, dose response in NHEK culture medium; details: vs control culture medium
Experimental: (§1) To determine the optimal dose of active ingredient, test dose response studies were run using both Decorinyl® and Pamitoyl Pentapeptided-3. These test dose response studies were commissioned to determine the concentration of HBD-1 at various levels of the active ingredients. Neonatal Human Epidermal Keratinocytes (NHEK; Life Technology, Grand Island, NY, USA) were cultured with keratinocyte growth medium (KGM, Medium 154: M-154-500 Life Technology with supplements S-001, Life Technologies). NHEK were seeded into 96-well plates at a density of 10000 cells in 200 μl medium per well. After 48 hours, the cells were incubated with varying concentrations of each ingredient solution in a culture medium (KGM) overnight (16 hours) at 37° C., 5% CO2 and 95% humidity at four replicates for each concentration. Each of these active ingredients was tested at the following weight percents based on the weight of the total culture: 0.02 wt. %, 0.05 wt. %, 0.1 wt. %, 0.2 wt. %, 0.5 wt. %, 1.0 wt. %, 2.0 wt. %. Each of these compositions was compared to a control culture medium.
HBD-1 was detected using HBD-1 ELISA (enzyme-linked immunosorbent assay) developing kits (commercially available from Peprotech). […] The results were measured using a colorimeter, absorbance was measured at 450 nanometers (nm) within 30 minutes. […] The concentration of each sample was calculated using ELISA standard curve.

HBD-2 = HBD-2 ELISA, dose response in NHEK culture medium; details: 2.0 wt. %, vs control culture medium
Experimental: as §1, with “of HBD-2” for “of HBD-1”, “ingredients were” for “ingredients was”
HBD-2 was detected using HBD-2 ELISA developing kits (commercially available from Peprotech). […] The results were measured using a colorimeter, absorbance was measured at 450 nanometers (nm) within 30 minutes. […] The concentration of each sample was calculated using ELISA standard curve.

HBD-3 = HBD-3 ELISA, dose response in NHEK culture medium; details: vs control culture medium
Experimental: as §1, with “HBD-3” for “HBD-1”, “5-001,” for “S-001,”
HBD-3 was detected using HBD-3 ELISA developing kits (commercially available from Peprotech). […] The results were measured using a colorimeter, absorbance was measured at 450 nanometers (nm) within 30 minutes. […] The concentration of each sample was calculated using ELISA standard curve.

palmitoyl pentapeptide-3 [Pamitoyl Pentapeptided-3]
increase in HBD-1 concentration (HBD-1; 1.0 wt. %): 311%
increase in HBD-1 concentration (HBD-1; 2.0 wt. %): 1561%
increase in HBD-2 concentration (HBD-2): 2800%
increase in HBD-3 concentration (HBD-3; 1.0 wt. %): 1005%
increase in HBD-3 concentration (HBD-3; 2.0 wt. %): 1890%
